Source: ChEMBL document CHEMBL3797166, “Identification of N-phenyl-2-(N-phenylphenylsulfonamido)acetamides as new RORγ inverse agonists: Virtual screening, structure-based optimization, and biological evaluation” (Eur J Med Chem, 2016)
Calls of active or inactive are those of the source. No cut-off for these calls is given here.

Assays:
[1] = target: T1, Nuclear receptor ROR-gamma (Homo sapiens, UniProt P51449); assay: Inhibition of Gal4-RORgamma-LBD (180 to 507 residues) (unknown origin) expressed in HEK293T cells after 24 hrs by dual-luciferase reporter assay; type: cell-based, HEK-293T
T1 sequence (P51449 whole entry): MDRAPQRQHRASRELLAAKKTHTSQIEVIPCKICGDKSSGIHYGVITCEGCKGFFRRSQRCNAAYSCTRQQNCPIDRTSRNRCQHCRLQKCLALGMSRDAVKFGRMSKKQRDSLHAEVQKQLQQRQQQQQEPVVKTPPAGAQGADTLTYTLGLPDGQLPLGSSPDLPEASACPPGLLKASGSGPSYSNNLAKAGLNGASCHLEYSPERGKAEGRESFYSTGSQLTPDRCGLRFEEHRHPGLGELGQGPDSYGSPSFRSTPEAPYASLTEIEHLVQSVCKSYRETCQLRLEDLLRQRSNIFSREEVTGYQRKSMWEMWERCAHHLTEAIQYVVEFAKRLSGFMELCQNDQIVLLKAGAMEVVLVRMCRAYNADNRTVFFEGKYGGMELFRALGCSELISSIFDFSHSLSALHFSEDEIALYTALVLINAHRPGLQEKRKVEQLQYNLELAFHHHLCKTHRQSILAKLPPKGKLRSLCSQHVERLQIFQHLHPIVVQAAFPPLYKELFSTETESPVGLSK

[2] = target: T1, Nuclear receptor ROR-gamma; assay: Displacement of N-terminal biotinylated SRC1-4 coactivator peptide from N-terminal His6-fused human RORgamma-LBD (262 to 507 residues) expressed in Escherichia coli BL21 (DE3) by luminescence-based Alphascreen assay
[3] = target: T2, Nuclear receptor ROR-gamma (Homo sapiens) (UniProt P51449)
T2 sequence (whole entry): T1 sequence (P51449 whole entry)
Description: Binding affinity to N-terminal His6-fused human RORgamma-LBD (262 to 507 residues) expressed in Escherichia coli BL21 (DE3) assessed as inhibition of thermal stability activity at 200 uM incubated for 30 mins by RT-PCR analysis

Row | IC50 ([1]; read-out: IC50) [µM] | IC50 ([2]; read-out: IC50) [µM] | ΔTm [3] [°C] | IC50 ([1]; hek-293t) | deltaTm [3] | IC50 [2] | SMILES
1 | 0.63 | 36.8 | 1.71 |  |  |  | Cc1ccc(N(CC(=O)Nc2ccc(C#N)cc2)S(=O)(=O)Cc2ccccc2)cc1
2 | 4.54 | 62.6 | 1.8 |  |  |  | Cc1ccc(S(=O)(=O)N(CC(=O)Nc2ccc(F)cc2F)c2cccc(C(F)(F)F)c2)cc1
3 |  | 112 | 0.5 |  |  |  | Cc1ccc(S(=O)(=O)N(CC(=O)Nc2ccc(C(O)(C(F)(F)F)C(F)(F)F)cc2)c2cccc(C(F)(F)F)c2)cc1
4 | 22.1 | 14.7 | 1 |  |  |  | Cc1ccc(S(=O)(=O)N(CC(=O)NCc2ccc(O)cc2)c2cccc(C(F)(F)F)c2)cc1
5 | 3.98 | 11.8 | 1.15 |  |  |  | COC(=O)c1ccc(NC(=O)CN(c2cccc(C(F)(F)F)c2)S(=O)(=O)c2ccc(C)cc2)cc1
6 | 0.63 | 0.22 | 3.5 |  |  |  | Cc1ccc(S(=O)(=O)N(CC(=O)Nc2ccc(C#N)cc2)c2ccc(Cl)c(Cl)c2)cc1
7 | 8.34 | 13.6 | 1.6 |  |  |  | Cc1ccc(S(=O)(=O)N(CC(=O)Nc2ccc(O)cc2)c2cccc(C(F)(F)F)c2)cc1
8 | 3.65 | 15.8 | 0.8 |  |  |  | Cc1ccc(S(=O)(=O)N(CC(=O)Nc2nc(C)cs2)c2cccc(C(F)(F)F)c2)cc1
9 | 1.78 | 25.8 | 2.5 |  |  |  | Cc1ccc(N(CC(=O)Nc2ccc(C#N)cc2)S(=O)(=O)Cc2ccc(F)cc2)cc1
10 | 7.51 | 13.1 | 1.07 |  |  |  | Cc1ccc(S(=O)(=O)N(CC(=O)NCc2ccc(F)cc2)c2cccc(C(F)(F)F)c2)cc1
11 | 8.28 | 15.2 | 2.2 |  |  |  | Cc1ccc(S(=O)(=O)N(CC(=O)NCc2ccncc2)c2cccc(C(F)(F)F)c2)cc1
12 |  | 67.1 |  | Not Active |  |  | COC(=O)c1ccc(CNC(=O)CN(c2cccc(C(F)(F)F)c2)S(=O)(=O)c2ccc(C)cc2)cc1
13 | 1.45 | 10.3 | 2.8 |  |  |  | Cc1ccc(N(CC(=O)Nc2ccc(C#N)cc2)S(=O)(=O)c2ccc(F)cc2)cc1
14 | 152 | 93.3 |  |  | inactive |  | Cc1ccc(S(=O)(=O)N(CC(=O)O)c2cccc(C(F)(F)F)c2)cc1
15 |  | 93.9 |  | Not Active |  |  | Cc1ccc(S(=O)(=O)N(CC(=O)Nc2ccc(OCc3ccccc3)cc2)c2cccc(C(F)(F)F)c2)cc1
16 | 0.91 | 36.1 | 2.15 |  |  |  | Cc1ccc(S(=O)(=O)N(CC(=O)Nc2ccc(C#N)cc2)c2ccc(F)cc2)cc1

Row | IC50 ([1]; read-out: IC50) [µM] | IC50 ([2]; read-out: IC50) [µM] | ΔTm [3] [°C] | IC50 ([1]; hek-293t) | deltaTm [3] | IC50 [2] | SMILES
17 |  |  |  | Not Active |  |  | Cc1ccc(S(=O)(=O)N(CC(=O)Nc2cccc(C(=O)O)c2)c2cccc(C(F)(F)F)c2)cc1
18 | 0.59 | 11.3 | 1.25 |  |  |  | CC(=O)c1ccc(NC(=O)CN(c2cccc(C(F)(F)F)c2)S(=O)(=O)c2ccc(C)cc2)cc1
19 | 1.39 |  | 2.1 |  |  |  | COC(=O)c1ccccc1NC(=O)CN(c1cccc(C(F)(F)F)c1)S(=O)(=O)c1ccc(C)cc1
20 | 1.03 |  | 0.1 |  |  | Not Active | Cc1ccc(S(=O)(=O)N(CC(=O)NC2CCCCC2)c2cccc(C(F)(F)F)c2)cc1
21 |  |  |  | Not Active |  | Not Active | CCCCCCNC(=O)CN(c1cccc(C(F)(F)F)c1)S(=O)(=O)c1ccc(C)cc1
22 |  |  |  | Not Active |  | Not Active | Cc1ccc(S(=O)(=O)N(CC(=O)Nc2ccc(OC(F)(F)F)cc2)c2cccc(C(F)(F)F)c2)cc1
23 | 6.06 |  |  |  |  | Not Active | COC(=O)c1cccc(NC(=O)CN(c2cccc(C(F)(F)F)c2)S(=O)(=O)c2ccc(C)cc2)c1
24 | 0.42 | 35.1 | 1.9 |  |  |  | Cc1ccc(S(=O)(=O)N(CC(=O)Nc2ccc(C(N)=O)cc2)c2cccc(C(F)(F)F)c2)cc1
25 | 2.44 | 12.8 | 1.3 |  |  |  | COc1ccc(NC(=O)CN(c2cccc(C(F)(F)F)c2)S(=O)(=O)c2ccc(C)cc2)cc1OC
26 | 0.9 | 0.77 | 3.5 |  |  |  | Cc1ccc(S(=O)(=O)N(CC(=O)Nc2ccc(C#N)cc2)c2cccc(C(F)(F)F)c2)cc1
27 | 0.62 | 1.07 | 3.05 |  |  |  | Cc1ccc(S(=O)(=O)N(CC(=O)Nc2ccc(C#N)cc2)c2ccc(C(F)(F)F)cc2)cc1
28 | 10.4 | 175 |  |  | inactive |  | CC(=O)N1CCN(C(=O)CN(c2cccc(C(F)(F)F)c2)S(=O)(=O)c2ccc(C)cc2)CC1
29 | 3.37 | 3.99 | 2.1 |  |  |  | Cc1ccc(S(=O)(=O)N(CC(=O)Nc2ccc(F)cc2)c2cccc(C(F)(F)F)c2)cc1
30 | 1.31 | 65.3 | 1.71 |  |  |  | Cc1ccc(S(=O)(=O)N(CC(=O)Nc2ccc(C#N)cc2)c2ccc(C#N)cc2)cc1
31 | 27.2 |  | 1 |  |  | Not Active | Cc1ccc(CNC(=O)CN(c2cccc(C(F)(F)F)c2)S(=O)(=O)c2ccc(C)cc2)cc1
